Structures are written as SMILES.

This data set is described as follows: First normal stress difference of glycerin phases (AR-G2 rheometer). In kind it is physicochemical. As to the method:
The first normal stress difference of several glycerin phases (“Phase”) was measured prior to emulsification. A TA Instruments AR-G2 Rheometer was used to perform viscosity measurements for each of the phases A-E and a 100% glycerin phase using a 2 degree cone and plate geometry and a 52 micron gap. Measurements were taken at a shear stress of 100 Pa and 25° C. (77° F.).

On to `OCC(O)CO` [Glycerin (100%), Glycerin], for which the “First Normal Stress Difference (N1 = 2 × Je × η^2 × γ^2, Pa)” value (glycerin phase prior to emulsification, shear stress of 100 Pa and 25° C., 2 degree cone and plate, 52 micron gap) is 0 Pa. In addition, the extensional viscosity entry (inferred from first normal stress difference) was “no extensional viscosity”.

The values are drawn from patent publication US11351095B2, “Stabilized emulsions with acidic agents” (Avon Products, Inc., priority 2018, dated 2022).
